Measured values from patent US20250171438A1 (Agios Pharmaceuticals, Inc., priority 2022, published 2025).

Target: T1, human PAH with the R408W mutation (Homo sapiens, UniProt P00439, R408W)
T1 construct: expressed in transfected cells
T1 sequence (P00439 1-452 R408W): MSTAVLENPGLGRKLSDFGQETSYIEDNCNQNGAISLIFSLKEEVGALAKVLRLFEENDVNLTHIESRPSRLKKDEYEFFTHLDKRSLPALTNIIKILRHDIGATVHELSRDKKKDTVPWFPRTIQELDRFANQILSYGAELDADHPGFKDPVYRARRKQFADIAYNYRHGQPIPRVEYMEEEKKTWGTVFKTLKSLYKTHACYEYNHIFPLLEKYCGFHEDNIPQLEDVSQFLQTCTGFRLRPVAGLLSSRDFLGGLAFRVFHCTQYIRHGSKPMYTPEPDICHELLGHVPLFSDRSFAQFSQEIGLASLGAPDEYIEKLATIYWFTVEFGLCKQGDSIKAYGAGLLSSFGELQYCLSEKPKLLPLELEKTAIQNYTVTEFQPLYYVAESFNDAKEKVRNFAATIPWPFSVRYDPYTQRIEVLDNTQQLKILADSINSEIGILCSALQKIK
Test: Cell Based Phenylalanine Flux Assay
Conditions: A375 cells expressing human R408W PAH; 24 hrs compound incubation; 13C-Tyrosine by LC-MS; average where tested multiple times; read-out: AC50

Row | AC50 | Structure (SMILES)
1 | < 0.5 µM | CN1CCN(c2nc(Br)c(C(=O)N3CCc4[nH]cnc4[C@H]3c3nc4c(F)cccc4s3)o2)CC1 [Example 2031, (S)-(4-bromo-2-(4-methylpiperazin-1-yl)oxazol-5-yl)(4-(4-fluorobenzo[d]thiazol-2-yl)-6,7-dihydro-1H-imidazo[4,5-c]pyridin-5(4H)-yl)methanone]
2 | 1 to 5 µM | CN1CCN(c2nc(Br)c(C(=O)N3CCc4[nH]cnc4[C@@H]3c3nc4c(F)cccc4s3)o2)CC1 [Example 2032, (R)-(4-bromo-2-(4-methylpiperazin-1-yl)oxazol-5-yl)(4-(4-fluorobenzo[d]thiazol-2-yl)-6,7-dihydro-1H-imidazo[4,5-c]pyridin-5(4H)-yl)methanone]
3 | < 0.5 µM | O=C(c1oc(N2CCOCC2)nc1Br)N1CCc2[nH]cnc2[C@H]1c1nc2c(F)cccc2s1 [Example 2033]
4 | 1 to 5 µM | O=C(c1oc(N2CCOCC2)nc1Br)N1CCc2[nH]cnc2[C@@H]1c1nc2c(F)cccc2s1 [Example 2034, (R)-(4-bromo-2-morpholinooxazol-5-yl)(4-(4-fluorobenzo[d]thiazol-2-yl)-6,7-dihydro-1H-imidazo[4,5-c]pyridin-5(4H)-yl)methanone]
5 | 1 to 5 µM | O=C(c1cn[nH]c1Cl)N1CCc2[nH]cnc2[C@@H]1c1nc2ccccc2s1 [Example 2035, (R)-(4-(benzo[d]thiazol-2-yl)-6,7-dihydro-1H-imidazo[4,5-c]pyridin-5(4H)-yl)(5-chloro-1H-pyrazol-4-yl)methanone]
6 | < 0.5 µM | O=C(c1cn[nH]c1Cl)N1CCc2[nH]cnc2[C@H]1c1nc2ccccc2s1 [Example 2036]
7 | < 0.5 µM | CC(C)n1ncnc1C(=O)N1CCc2[nH]cnc2[C@H]1c1nc2ccccc2s1 [Example 2037]
8 | < 0.5 µM | CC(C)n1ncnc1C(=O)N1CCc2[nH]cnc2[C@H]1c1nc2c(F)cccc2s1 [Example 2039, (S)-(4-(4-fluorobenzo[d]thiazol-2-yl)-6,7-dihydro-1H-imidazo[4,5-c]pyridin-5(4H)-yl)(1-isopropyl-1H-1,2,4-triazol-5-yl)methanone]
9 | 1 to 5 µM | CC(C)n1ncnc1C(=O)N1CCc2[nH]cnc2[C@@H]1c1nc2c(F)cccc2s1 [Example 2040, (R)-(4-(4-fluorobenzo[d]thiazol-2-yl)-6,7-dihydro-1H-imidazo[4,5-c]pyridin-5(4H)-yl)(1-isopropyl-1H-1,2,4-triazol-5-yl)methanone]
10 | < 0.5 µM | O=C(c1ocnc1CF)N1CCc2[nH]cnc2[C@H]1c1nc2c(F)cccc2s1 [Example 2041, (S)-(4-(4-fluorobenzo[d]thiazol-2-yl)-6,7-dihydro-1H-imidazo[4,5-c]pyridin-5(4H)-yl)(4-(fluoromethyl)oxazol-5-yl)methanone]
11 | 1 to 5 µM | O=C(c1ocnc1CF)N1CCc2[nH]cnc2[C@@H]1c1nc2c(F)cccc2s1 [Example 2042, (R)-(4-(4-fluorobenzo[d]thiazol-2-yl)-6,7-dihydro-1H-imidazo[4,5-c]pyridin-5(4H)-yl)(4-(fluoromethyl)oxazol-5-yl)methanone]
12 | 1 to 5 µM | CCn1cnnc1C(=O)N1CCc2[nH]cnc2[C@@H]1c1nc2c(F)cccc2s1 [Example 2043, (R)-(4-ethyl-4H-1,2,4-triazol-3-yl)(4-(4-fluorobenzo[d]thiazol-2-yl)-6,7-dihydro-1H-imidazo[4,5-c]pyridin-5(4H)-yl)methanone]
13 | 0.5 to 1 µM | CCn1cnnc1C(=O)N1CCc2[nH]cnc2[C@H]1c1nc2c(F)cccc2s1 [Example 2044]
14 | 1 to 5 µM | Cn1nc(C(C)(C)C#N)nc1C(=O)N1CCc2[nH]cnc2[C@H]1c1nc2ccccc2s1 [Example 2045, (S)-2-(5-(4-(benzo[d]thiazol-2-yl)-4,5,6,7-tetrahydro-1H-imidazo[4,5-c]pyridine-5-carbonyl)-1-methyl-1H-1,2,4-triazol-3-yl)-2-methylpropanenitrile]
15 | 1 to 5 µM | Cn1nc(C(C)(C)C#N)nc1C(=O)N1CCc2[nH]cnc2[C@@H]1c1nc2ccccc2s1 [Example 2046, (R)-2-(5-(4-(benzo[d]thiazol-2-yl)-4,5,6,7-tetrahydro-1H-imidazo[4,5-c]pyridine-5-carbonyl)-1-methyl-1H-1,2,4-triazol-3-yl)-2-methylpropanenitrile]
16 | 0.5 to 1 µM | Cn1nc(C(C)(C)C#N)nc1C(=O)N1CCc2[nH]cnc2[C@H]1c1nc2c(F)cccc2s1 [Example 2047, (S)-2-(5-(4-(4-fluorobenzo[d]thiazol-2-yl)-4,5,6,7-tetrahydro-1H-imidazo[4,5-c]pyridine-5-carbonyl)-1-methyl-1H-1,2,4-triazol-3-yl)-2-methylpropanenitrile]

Row | AC50 | Structure (SMILES)
17 | 1 to 5 µM | Cn1nc(C(C)(C)C#N)nc1C(=O)N1CCc2[nH]cnc2[C@@H]1c1nc2c(F)cccc2s1 [Example 2048, (R)-2-(5-(4-(4-fluorobenzo[d]thiazol-2-yl)-4,5,6,7-tetrahydro-1H-imidazo[4,5-c]pyridine-5-carbonyl)-1-methyl-1H-1,2,4-triazol-3-yl)-2-methylpropanenitrile]
18 | 1 to 5 µM | Cc1nc(C(C)(C)N(C)C)oc1C(=O)N1CCc2[nH]cnc2[C@H]1c1nc2c(F)cccc2s1 [Example 2049, (S)-(2-(2-(dimethylamino)propan-2-yl)-4-methyloxazol-5-yl)(4-(4-fluorobenzo[d]thiazol-2-yl)-6,7-dihydro-1H-imidazo[4,5-c]pyridin-5(4H)-yl)methanone]
19 | 1 to 5 µM | Cc1nc(C(C)(C)N(C)C)oc1C(=O)N1CCc2[nH]cnc2[C@@H]1c1nc2c(F)cccc2s1 [Example 2050, (R)-(2-(2-(dimethylamino)propan-2-yl)-4-methyloxazol-5-yl)(4-(4-fluorobenzo[d]thiazol-2-yl)-6,7-dihydro-1H-imidazo[4,5-c]pyridin-5(4H)-yl)methanone]
20 | < 0.5 µM | Nc1cc(C(=O)N2CCc3[nH]cnc3[C@H]2c2nc3ccccc3s2)n(C(F)F)n1 [Example 2051]
21 | 1 to 5 µM | Nc1cc(C(=O)N2CCc3[nH]cnc3[C@@H]2c2nc3ccccc3s2)n(C(F)F)n1 [Example 2052, (R)-(3-amino-1-(difluoromethyl)-1H-pyrazol-5-yl)(4-(benzo[d]thiazol-2-yl)-6,7-dihydro-1H-imidazo[4,5-c]pyridin-5(4H)-yl)methanone]
22 | 0.5 to 1 µM | Nc1cc(C(=O)N2CCc3[nH]cnc3[C@H]2c2nc3c(F)cccc3s2)n(C(F)F)n1 [Example 2053, (S)-(3-amino-1-(difluoromethyl)-1H-pyrazol-5-yl)(4-(4-fluorobenzo[d]thiazol-2-yl)-6,7-dihydro-1H-imidazo[4,5-c]pyridin-5(4H)-yl)methanone]
23 | > 5 µM | Nc1cc(C(=O)N2CCc3[nH]cnc3[C@@H]2c2nc3c(F)cccc3s2)n(C(F)F)n1 [Example 2054, (R)-(3-amino-1-(difluoromethyl)-1H-pyrazol-5-yl)(4-(4-fluorobenzo[d]thiazol-2-yl)-6,7-dihydro-1H-imidazo[4,5-c]pyridin-5(4H)-yl)methanone]
24 | < 0.5 µM | O=C(c1oc(C2(O)CC2)nc1C(F)F)N1CCc2[nH]cnc2[C@H]1c1nc2ccccc2s1 [Example 2055]
25 | 1 to 5 µM | O=C(c1oc(C2(O)CC2)nc1C(F)F)N1CCc2[nH]cnc2[C@@H]1c1nc2ccccc2s1 [Example 2056, (R)-(4-(benzo[d]thiazol-2-yl)-6,7-dihydro-1H-imidazo[4,5-c]pyridin-5(4H)-yl)(4-(difluoromethyl)-2-(1-hydroxycyclopropyl)oxazol-5-yl)methanone]
26 | < 0.5 µM | CC(C)(O)Cc1nc(C(F)F)c(C(=O)N2CCc3[nH]cnc3[C@H]2c2nc3c(F)cccc3s2)o1 [Example 2061]
27 | 1 to 5 µM | CC(C)(O)Cc1nc(C(F)F)c(C(=O)N2CCc3[nH]cnc3[C@@H]2c2nc3c(F)cccc3s2)o1 [Example 2062, (R)-(4-(difluoromethyl)-2-(2-hydroxy-2-methylpropyl)oxazol-5-yl)(4-(4-fluorobenzo[d]thiazol-2-yl)-6,7-dihydro-1H-imidazo[4,5-c]pyridin-5(4H)-yl)methanone]
28 | < 0.5 µM | CC[C@H](O)c1nc(C(F)F)c(C(=O)N2CCc3[nH]cnc3[C@H]2c2nc3c(F)cccc3s2)o1 [Example 2063]
29 | 1 to 5 µM | CC[C@H](O)c1nc(C(F)F)c(C(=O)N2CCc3[nH]cnc3[C@@H]2c2nc3c(F)cccc3s2)o1 [Example 2064, (4-(difluoromethyl)-2-((S)-1-hydroxypropyl)oxazol-5-yl)((R)-4-(4-fluorobenzo[d]thiazol-2-yl)-6,7-dihydro-1H-imidazo[4,5-c]pyridin-5(4H)-yl)methanone]
30 | < 0.5 µM | CC(C)(O)c1nc(CF)c(C(=O)N2CCc3[nH]cnc3[C@H]2c2nc3c(F)cccc3s2)o1 [Example 2065, (S)-(4-(4-fluorobenzo[d]thiazol-2-yl)-6,7-dihydro-1H-imidazo[4,5-c]pyridin-5(4H)-yl)(4-(fluoromethyl)-2-(2-hydroxypropan-2-yl)oxazol-5-yl)methanone]
31 | 1 to 5 µM | CC(C)(O)c1nc(CF)c(C(=O)N2CCc3[nH]cnc3[C@@H]2c2nc3c(F)cccc3s2)o1 [Example 2066, (R)-(4-(4-fluorobenzo[d]thiazol-2-yl)-6,7-dihydro-1H-imidazo[4,5-c]pyridin-5(4H)-yl)(4-(fluoromethyl)-2-(2-hydroxypropan-2-yl)oxazol-5-yl)methanone]
32 | < 0.5 µM | CC[C@@H](O)c1nc(C(F)F)c(C(=O)N2CCc3[nH]cnc3[C@H]2c2nc3c(F)cccc3s2)o1 [Example 2067]
